Laboratory results: ChEMBL document CHEMBL4507276 (2021)

What was measured:
[1] = molecular target: Histamine H3 receptor (Homo sapiens) (UniProt Q9Y5N1); test: H3/H Eurofins-Panlabs selectivity data (BI); details: Compound concentration 10.0 uM
[2] = molecular target: Alpha-1A adrenergic receptor (Rattus norvegicus) (UniProt P43140); test: ALPHA1A/R Eurofins-Panlabs selectivity data (BI); details: Compound concentration 10.0 uM
[3] = molecular target: D(1A) dopamine receptor (Homo sapiens) (UniProt P21728); test: D1/H Cerep selectivity data (BI); details: filed as antagonist, Compound concentration 20.0 uM
Sequence of D(1A) dopamine receptor (Homo sapiens) (P21728 whole entry, the tested form may be a part): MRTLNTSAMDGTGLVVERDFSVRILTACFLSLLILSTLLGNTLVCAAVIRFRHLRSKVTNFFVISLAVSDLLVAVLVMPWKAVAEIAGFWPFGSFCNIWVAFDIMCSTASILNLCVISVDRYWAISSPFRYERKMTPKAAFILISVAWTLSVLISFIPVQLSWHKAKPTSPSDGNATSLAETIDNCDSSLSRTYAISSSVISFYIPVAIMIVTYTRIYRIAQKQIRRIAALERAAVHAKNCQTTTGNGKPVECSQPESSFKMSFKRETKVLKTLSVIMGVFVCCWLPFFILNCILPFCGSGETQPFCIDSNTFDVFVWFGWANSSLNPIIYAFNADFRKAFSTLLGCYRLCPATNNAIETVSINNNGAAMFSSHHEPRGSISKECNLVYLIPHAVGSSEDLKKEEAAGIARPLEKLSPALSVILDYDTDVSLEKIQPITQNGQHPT

[4] = molecular target: PAS domain-containing serine/threonine-protein kinase (Homo sapiens) (UniProt Q96RG2); test: PASK Invitrogen selectivity data (BI); details: Compound concentration 3.0 uM
Sequence of PAS domain-containing serine/threonine-protein kinase (Homo sapiens) (Q96RG2 whole entry, the tested form may be a part): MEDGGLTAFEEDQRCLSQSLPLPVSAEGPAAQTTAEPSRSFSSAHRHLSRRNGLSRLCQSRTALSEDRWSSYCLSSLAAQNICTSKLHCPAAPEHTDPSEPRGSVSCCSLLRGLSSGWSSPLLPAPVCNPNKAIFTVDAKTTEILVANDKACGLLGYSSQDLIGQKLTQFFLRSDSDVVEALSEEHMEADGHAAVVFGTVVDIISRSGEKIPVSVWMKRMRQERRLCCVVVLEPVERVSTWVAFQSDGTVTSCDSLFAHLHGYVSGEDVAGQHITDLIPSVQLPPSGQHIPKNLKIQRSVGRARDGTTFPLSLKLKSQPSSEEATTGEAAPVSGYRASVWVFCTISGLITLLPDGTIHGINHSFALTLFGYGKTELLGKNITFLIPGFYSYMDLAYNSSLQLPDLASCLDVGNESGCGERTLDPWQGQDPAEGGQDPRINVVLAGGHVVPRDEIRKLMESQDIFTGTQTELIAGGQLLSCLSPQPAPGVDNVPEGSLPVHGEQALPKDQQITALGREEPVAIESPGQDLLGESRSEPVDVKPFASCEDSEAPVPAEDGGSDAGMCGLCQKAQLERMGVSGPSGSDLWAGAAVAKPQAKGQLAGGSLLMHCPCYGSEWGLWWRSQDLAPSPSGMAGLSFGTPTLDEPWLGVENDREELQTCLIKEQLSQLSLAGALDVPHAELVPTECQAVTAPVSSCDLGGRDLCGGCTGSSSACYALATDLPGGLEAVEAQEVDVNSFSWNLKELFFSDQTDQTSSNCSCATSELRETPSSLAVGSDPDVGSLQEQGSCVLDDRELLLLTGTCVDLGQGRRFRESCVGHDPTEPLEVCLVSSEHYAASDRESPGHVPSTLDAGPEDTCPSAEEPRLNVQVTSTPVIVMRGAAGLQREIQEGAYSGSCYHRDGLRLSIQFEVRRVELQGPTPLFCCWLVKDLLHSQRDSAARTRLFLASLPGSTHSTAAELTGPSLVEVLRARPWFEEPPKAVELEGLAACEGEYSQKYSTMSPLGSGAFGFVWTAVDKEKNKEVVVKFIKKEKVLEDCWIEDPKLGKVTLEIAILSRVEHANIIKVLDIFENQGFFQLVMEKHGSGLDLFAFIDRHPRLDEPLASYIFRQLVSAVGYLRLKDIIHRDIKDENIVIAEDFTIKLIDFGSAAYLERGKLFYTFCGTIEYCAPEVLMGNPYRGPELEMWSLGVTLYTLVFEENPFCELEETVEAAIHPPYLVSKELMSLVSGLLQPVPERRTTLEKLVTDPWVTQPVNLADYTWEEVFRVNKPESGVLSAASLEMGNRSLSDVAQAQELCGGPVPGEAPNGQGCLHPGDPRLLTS

[5] = molecular target: T1, Mitogen-activated protein kinase kinase kinase 3 (Homo sapiens) (UniProt Q99759); test: MAP3K3 Invitrogen selectivity data (BI); details: Compound concentration 3.0 uM
T1 sequence (whole entry): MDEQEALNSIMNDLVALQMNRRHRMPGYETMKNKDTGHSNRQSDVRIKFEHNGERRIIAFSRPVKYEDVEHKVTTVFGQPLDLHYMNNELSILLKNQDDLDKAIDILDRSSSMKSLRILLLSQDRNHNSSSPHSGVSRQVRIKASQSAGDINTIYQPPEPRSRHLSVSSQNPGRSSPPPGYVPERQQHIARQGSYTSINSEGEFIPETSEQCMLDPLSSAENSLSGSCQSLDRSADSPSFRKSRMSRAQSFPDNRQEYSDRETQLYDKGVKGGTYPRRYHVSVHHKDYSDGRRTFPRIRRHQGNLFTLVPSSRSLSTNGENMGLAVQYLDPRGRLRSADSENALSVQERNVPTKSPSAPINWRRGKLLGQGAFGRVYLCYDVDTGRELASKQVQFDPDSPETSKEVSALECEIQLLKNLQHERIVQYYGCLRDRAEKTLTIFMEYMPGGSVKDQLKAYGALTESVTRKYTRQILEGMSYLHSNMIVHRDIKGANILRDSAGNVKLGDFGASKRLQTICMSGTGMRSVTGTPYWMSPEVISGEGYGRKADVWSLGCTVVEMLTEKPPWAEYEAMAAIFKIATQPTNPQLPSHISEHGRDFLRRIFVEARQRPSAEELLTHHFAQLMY

[6] = molecular target: T2, TGF-beta receptor type-1 (Homo sapiens) (UniProt P36897); test: TGFBR1 Invitrogen selectivity data (BI); details: Compound concentration 3.0 uM
T2 sequence (whole entry): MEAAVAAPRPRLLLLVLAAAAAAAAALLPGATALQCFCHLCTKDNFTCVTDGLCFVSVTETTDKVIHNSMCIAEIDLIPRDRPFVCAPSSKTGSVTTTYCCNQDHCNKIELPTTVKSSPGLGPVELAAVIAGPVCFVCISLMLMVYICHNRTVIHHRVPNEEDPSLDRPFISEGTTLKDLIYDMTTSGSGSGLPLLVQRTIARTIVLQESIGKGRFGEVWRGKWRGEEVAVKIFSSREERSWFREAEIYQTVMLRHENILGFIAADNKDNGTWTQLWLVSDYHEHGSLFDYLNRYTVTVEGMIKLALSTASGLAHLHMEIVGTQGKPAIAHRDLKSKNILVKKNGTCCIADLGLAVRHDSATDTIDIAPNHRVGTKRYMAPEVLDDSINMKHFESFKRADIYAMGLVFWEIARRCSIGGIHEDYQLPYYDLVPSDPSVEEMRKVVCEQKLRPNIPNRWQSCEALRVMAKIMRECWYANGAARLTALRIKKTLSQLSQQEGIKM

[7] = molecular target: Rho-associated protein kinase 1 (Homo sapiens) (UniProt Q13464); test: ROCK1 Invitrogen selectivity data (BI); details: Compound concentration 3.0 uM
[8] = molecular target: Mitogen-activated protein kinase 9 (Homo sapiens) (UniProt P45984); test: MAPK9 Invitrogen selectivity data (BI); details: Compound concentration 3.0 uM
Sequence of Mitogen-activated protein kinase 9 (Homo sapiens) (P45984 whole entry, looked up): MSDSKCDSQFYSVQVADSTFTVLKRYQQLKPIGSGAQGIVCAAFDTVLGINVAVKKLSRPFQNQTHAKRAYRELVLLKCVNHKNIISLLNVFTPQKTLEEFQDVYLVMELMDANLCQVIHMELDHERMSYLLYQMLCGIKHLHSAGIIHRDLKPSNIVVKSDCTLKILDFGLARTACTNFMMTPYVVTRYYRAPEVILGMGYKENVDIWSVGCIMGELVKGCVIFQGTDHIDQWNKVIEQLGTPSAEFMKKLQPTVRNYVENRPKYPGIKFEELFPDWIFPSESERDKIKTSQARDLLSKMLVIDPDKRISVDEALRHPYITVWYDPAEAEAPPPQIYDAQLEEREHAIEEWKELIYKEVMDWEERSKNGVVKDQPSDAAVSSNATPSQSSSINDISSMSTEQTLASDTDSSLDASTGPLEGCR

[9] = test system: Tyrosine-protein kinase ABL1 (Homo sapiens), P00519 [T315I]; test: ABL1 T315I Invitrogen selectivity data (BI); details: Compound concentration 3.0 uM
[10] = molecular target: T3, Ephrin type-B receptor 3 (Homo sapiens) (UniProt P54753); test: EPHB3 Invitrogen selectivity data (BI); details: Compound concentration 3.0 uM
T3 sequence (whole entry): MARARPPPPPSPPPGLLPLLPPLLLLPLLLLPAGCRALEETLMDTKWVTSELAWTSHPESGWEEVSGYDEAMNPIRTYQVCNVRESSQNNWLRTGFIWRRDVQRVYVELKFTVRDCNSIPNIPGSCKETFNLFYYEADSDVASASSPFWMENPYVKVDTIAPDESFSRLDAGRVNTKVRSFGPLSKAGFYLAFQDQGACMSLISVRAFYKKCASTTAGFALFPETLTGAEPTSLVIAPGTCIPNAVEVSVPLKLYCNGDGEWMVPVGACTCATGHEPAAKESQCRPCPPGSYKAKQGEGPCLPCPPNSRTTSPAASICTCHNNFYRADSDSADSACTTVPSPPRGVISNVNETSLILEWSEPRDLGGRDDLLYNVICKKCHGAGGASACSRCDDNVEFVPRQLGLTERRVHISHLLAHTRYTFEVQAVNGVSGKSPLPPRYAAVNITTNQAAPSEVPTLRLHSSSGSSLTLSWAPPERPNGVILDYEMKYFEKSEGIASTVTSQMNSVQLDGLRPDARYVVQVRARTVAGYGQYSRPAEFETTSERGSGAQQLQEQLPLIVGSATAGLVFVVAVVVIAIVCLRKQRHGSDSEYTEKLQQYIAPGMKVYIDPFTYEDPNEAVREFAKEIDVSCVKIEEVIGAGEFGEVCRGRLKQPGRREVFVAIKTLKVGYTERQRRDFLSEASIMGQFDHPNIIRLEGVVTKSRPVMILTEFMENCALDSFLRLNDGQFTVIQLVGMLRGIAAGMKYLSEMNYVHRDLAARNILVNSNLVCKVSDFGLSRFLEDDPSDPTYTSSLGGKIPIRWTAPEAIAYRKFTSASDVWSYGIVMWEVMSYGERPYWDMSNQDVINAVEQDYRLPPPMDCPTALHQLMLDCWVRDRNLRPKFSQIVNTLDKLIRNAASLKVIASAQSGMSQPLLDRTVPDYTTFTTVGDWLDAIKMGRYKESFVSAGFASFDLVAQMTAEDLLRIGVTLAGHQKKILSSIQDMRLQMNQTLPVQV

[11] = molecular target: Phosphorylase b kinase gamma catalytic chain, skeletal muscle/heart isoform (Homo sapiens) (UniProt Q16816); test: PHKG1 Invitrogen selectivity data (BI); details: Compound concentration 3.0 uM
Sequence of Phosphorylase b kinase gamma catalytic chain, skeletal muscle/heart isoform (Homo sapiens) (Q16816 whole entry, looked up, canonical isoform): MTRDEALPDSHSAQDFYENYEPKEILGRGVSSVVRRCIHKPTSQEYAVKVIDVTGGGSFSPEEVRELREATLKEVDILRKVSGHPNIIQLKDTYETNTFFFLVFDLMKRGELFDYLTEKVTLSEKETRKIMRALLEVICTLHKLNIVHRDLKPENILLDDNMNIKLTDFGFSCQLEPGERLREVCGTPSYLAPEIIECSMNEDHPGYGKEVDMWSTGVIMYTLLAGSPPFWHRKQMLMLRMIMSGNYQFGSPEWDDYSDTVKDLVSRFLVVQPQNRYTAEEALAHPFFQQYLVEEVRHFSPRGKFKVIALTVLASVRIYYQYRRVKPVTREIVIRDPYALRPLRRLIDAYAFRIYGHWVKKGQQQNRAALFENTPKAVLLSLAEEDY

[12] = molecular target: Endothelin receptor type B (Homo sapiens) (UniProt P24530); test: ETB/H Cerep selectivity data (BI); details: Compound concentration 20.0 uM
[13] = molecular target: Cyclin-dependent kinase 9 (Homo sapiens) (UniProt P50750); test: CDK9CYCLIN Invitrogen selectivity data (BI); details: Compound concentration 3.0 uM
[14] = molecular target: Calcium/calmodulin-dependent protein kinase kinase 2 (Homo sapiens) (UniProt Q96RR4); test: CAMKK2 Invitrogen selectivity data (BI); details: Compound concentration 3.0 uM
Sequence of Calcium/calmodulin-dependent protein kinase kinase 2 (Homo sapiens) (Q96RR4 2-588 limits assumed): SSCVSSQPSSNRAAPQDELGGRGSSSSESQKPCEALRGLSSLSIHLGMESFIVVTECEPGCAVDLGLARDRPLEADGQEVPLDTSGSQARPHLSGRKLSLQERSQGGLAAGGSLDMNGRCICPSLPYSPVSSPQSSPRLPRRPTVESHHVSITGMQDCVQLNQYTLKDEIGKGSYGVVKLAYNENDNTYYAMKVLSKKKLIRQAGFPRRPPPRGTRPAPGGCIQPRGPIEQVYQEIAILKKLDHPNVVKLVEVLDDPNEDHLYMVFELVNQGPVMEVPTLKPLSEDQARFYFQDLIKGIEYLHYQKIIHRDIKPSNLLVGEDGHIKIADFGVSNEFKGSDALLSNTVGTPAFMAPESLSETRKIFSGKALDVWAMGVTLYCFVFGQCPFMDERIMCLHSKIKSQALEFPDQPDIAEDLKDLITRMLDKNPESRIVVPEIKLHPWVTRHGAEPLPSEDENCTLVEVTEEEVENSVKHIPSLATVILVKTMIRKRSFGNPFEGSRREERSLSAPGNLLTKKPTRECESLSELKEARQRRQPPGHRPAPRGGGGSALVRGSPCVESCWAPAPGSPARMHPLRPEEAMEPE

[15] = molecular target: Protein kinase C alpha type (Mus musculus) (UniProt P20444); test: PHORBOLE/M Eurofins-Panlabs selectivity data (BI); details: Compound concentration 10.0 uM
[16] = molecular target: Motilin receptor (Homo sapiens) (UniProt O43193); test: MOTILINH_AGON Cerep selectivity data (BI); details: filed as agonist, Compound concentration 20.0 uM

Measured: residual activity

Sequence of Histamine H3 receptor (Homo sapiens) (Q9Y5N1 whole entry): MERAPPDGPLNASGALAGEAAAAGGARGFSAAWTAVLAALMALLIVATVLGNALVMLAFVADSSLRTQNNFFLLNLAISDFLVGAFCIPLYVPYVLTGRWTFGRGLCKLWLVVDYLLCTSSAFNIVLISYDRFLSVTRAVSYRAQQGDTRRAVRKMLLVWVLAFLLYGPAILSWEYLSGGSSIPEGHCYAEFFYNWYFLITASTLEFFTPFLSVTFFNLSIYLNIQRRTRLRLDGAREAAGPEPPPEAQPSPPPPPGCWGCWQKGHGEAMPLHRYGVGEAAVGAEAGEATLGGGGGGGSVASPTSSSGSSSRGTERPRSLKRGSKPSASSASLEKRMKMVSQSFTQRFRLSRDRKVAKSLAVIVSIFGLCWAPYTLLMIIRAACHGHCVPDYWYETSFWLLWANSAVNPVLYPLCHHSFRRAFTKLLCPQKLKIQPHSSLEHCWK
Sequence of Alpha-1A adrenergic receptor (Rattus norvegicus) (P43140 whole entry, looked up): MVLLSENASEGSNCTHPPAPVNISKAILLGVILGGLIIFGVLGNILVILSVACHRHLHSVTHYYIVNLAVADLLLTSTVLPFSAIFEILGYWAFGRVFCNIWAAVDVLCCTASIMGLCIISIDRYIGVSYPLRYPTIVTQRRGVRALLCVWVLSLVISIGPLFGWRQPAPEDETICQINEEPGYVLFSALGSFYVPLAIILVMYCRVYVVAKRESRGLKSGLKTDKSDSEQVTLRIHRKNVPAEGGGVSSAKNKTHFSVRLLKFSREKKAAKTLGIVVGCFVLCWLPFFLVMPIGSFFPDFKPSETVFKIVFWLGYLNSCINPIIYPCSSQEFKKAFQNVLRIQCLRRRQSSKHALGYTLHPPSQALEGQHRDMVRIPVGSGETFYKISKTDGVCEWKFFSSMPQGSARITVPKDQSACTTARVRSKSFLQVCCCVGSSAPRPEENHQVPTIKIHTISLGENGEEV

CN(C)C(=O)Cn1cc(-c2nc([C@@](C)(c3ccc(-c4cnc(N)nc4)cc3)C3CC3)no2)cn1 [BI 665915]
inactive: [1] 123% | [2] 100% | [3] 98% | [4] 100% | [5] 101% | [6] 96% | [7] 99.5% | [8] 101% | [9] 83% | [10] 97% | [11] 97.5% | [12] 109% | [13] 102% | [14] 98% | [15] 104% | [16] 109%
